Where two headings read alike, the source gives them in different places.
Tests used:
[1] = biological target: T1, single chain tethered (tandem) HIV protease (HIV-1 M:B_HXB2R, UniProt P04585); assay: Tandem HIV protease assay; format: biochemical; conditions: read-out: FITC KI; Table II; enzyme HIV1TANDEM
T1 construct: purified enzyme, FITC/biotin substrate assay
How it was run: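 Covalently tethered single-chain HIV protease dimer allows very low enzyme levels for Ki measurement. N-biotinylated, C-fluorescein-labelled peptide substrate incubated with enzyme and inhibitor at pH 5.5 in the dark for 96 h; streptavidin beads stop reaction, cleaved product filtered off and residual fluorescence fitted to obtain Ki.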

[2] = biological target: T2, HIV-1 protease (Human immunodeficiency virus type 1 group M subtype B, UniProt P04585); assay: biochemical
How it was run: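 Biotinylated, FITC-labelled peptide substrate cleaved in 0.1 M sodium acetate pH 5.5, 1.0 M NaCl, 0.05% NP-40, room temperature. Filtered labelled product read by fluorescence; nonlinear least-squares fit.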

[3] = biological target: T2, HIV-1 protease; assay: biochemical; conditions: Table II, enzyme HIV-1
How it was run: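 A substrate biotinylated at the N-terminal arginine and FITC-labelled at the C-terminal lysine was incubated with HIV-1 protease (10 μl of 0.1 μM) and compound for 1 h in the dark at room temperature. Buffer was 0.1 M sodium acetate pH 5.5, 1.0 M NaCl, 0.05% NP-40. Labelled product was separated from substrate using streptavidin beads and filtration, and the fluorescence gave percent inhibition.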

[4] = system: human T-cell lines, e.g., MT4 and H9, infected with HIV-1IIIB; assay: Retroviral replication in infected human T-cell lines; format: cell-based; conditions: MT4 and H9 cells infected with HIV-1IIIB
Experimental: Several compounds of the present invention, such as N-[3-(1-[5,6-Dihydro-4-hydroxy-2-oxo-6-(2-phenethyl)-6-propyl-2H-pyran-3-yl]-2,2-dimethylpropyl)phenyl]-1-methyl-1H-imidazole-4-sulfonamide were tested in known human cell lines, such as human T-cell lines, e.g., MT4 and H9, which were infected with HIV-1IIIB, and certain of these compounds were further tested in peripheral blood mononuclear cells (PBMC), which were infected with HIV-1JRCSF (a clinical isolate).

[5] = biological target: T3, HIV-2 (Human immunodeficiency virus type 2 subtype A, UniProt P04584); assay: FITC Ki, enzyme HIV-2; format: biochemical; conditions: Table II
T3 construct: tested in the HIV protease screening assay and/or tandem HIV protease assay

[6] = Table II, enzyme HIV-1, read-out: FITC KI

T3 sequence (P04584 514-612 limits assumed): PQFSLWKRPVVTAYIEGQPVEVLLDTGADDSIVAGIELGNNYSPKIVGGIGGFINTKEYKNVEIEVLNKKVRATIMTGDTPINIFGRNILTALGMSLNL

Row | SMILES | Ki [1] [nM] | Ki [2, 6] [nM] | PROTEASE % INHIB. ([3]; DOSE 0.123 (unit not given)) [%] | PROTEASE % INHIB. ([3]; DOSE 0.370 (unit not given)) [%] | PROTEASE % INHIB. ([3]; DOSE 1.100 (unit not given)) [%] | PROTEASE % INHIB. ([3]; DOSE 3.300 (unit not given)) [%] | PROTEASE % INHIB. ([3]; DOSE 10.000 (unit not given)) [%] | PROTEASE % INHIB. ([3]; DOSE 30.000 (unit not given)) [%] | Ki ([2]; Table I, read-out: HIV Protease FITC Assay Ki) [nM] | inhibition of retroviral replication [4] | Ki [5] [nM]
1 | N#Cc1ccc(S(=O)(=O)Nc2cccc(CC3=C(O)CC(CCc4ccccc4)(CCc4ccccc4)OC3=O)c2)nc1 [Example 353, N-[3-{1-(4-Hydroxy-5,6-dihydro-2-oxo-6,6-bis(2-phenylethyl)-2H-pyran-3-yl)methyl}phenyl]-5-cyanopyridine-2-sulfonamide] | 5.3 | 10.4 | 51.83 | 68.49 | 70.71 | 63.96 | 51.8 | 43.93 | – | – | –
2 | CCCC1(CCc2ccccc2)CC(O)=C(C(c2cccc(NS(=O)(=O)c3cn(C)cn3)c2)C(C)(C)C)C(=O)O1 (stereo not drawn) [Example 250, N-[3-(1-[5,6-Dihydro-4-hydroxy-2-oxo-6-(2-phenethyl)-6-propyl-2H-pyran-3-yl]-2,2-dimethylpropyl)phenyl]-1-methyl-1H-imidazole-4-sulfonamide] | – | – | – | – | – | – | – | – | 1.2 | inhibit retroviral replication | –
3 | CCC(C1=C(O)C2CCCCC2OC1=O)c1cccc(NS(=O)(=O)c2ccc(C#N)cn2)c1 (stereo not drawn) [Example 370] | 0.05 | 0.59 | 92.81 | 87.87 | 102.89 | 109.33 | 113.79 | 98.14 | – | – | 0.05
4 | CCCC1(CCc2ccc(F)cc2)CC(O)=C(C(CC)c2cccc(NS(=O)(=O)c3ccc(C(N)=O)cn3)c2)C(=O)O1 (stereo not drawn) [Example 332, N-[3-{1-(4-Hydroxy-5,6-dihydro-2-oxo-6-(2-(4-fluorophenyl)ethyl)-6-propyl-2H-pyran-3-yl)propyl}phenyl]-5-carbamoylpyridine-2-sulfonamide] | 0.4 | 1.6 | 81.87 | 85.65 | 86.23 | 93.28 | 91.68 | 95.08 | – | – | –
5 | CCC[C@@]1(CCc2ccccc2)CC(O)=C([C@@H](c2cccc(NS(=O)(=O)c3cn(C)cn3)c2)C(C)(C)C)C(=O)O1 (single isomer, unassigned) [Example 310, N-[3(R or S)-[1-(5,6-Dihydro-4-hydroxy-2-oxo-6(R or S)-[2-phenylethyl]-6-propyl-2H-pyran-3-yl)-2,2-dimethylpropyl]phenyl]-1-methyl-1H-imidazole-4-sulfonamide] | 1.5 | – | 16.81 | 50.11 | 78.69 | 100.22 | 124.77 | 110.91 | – | – | –
6 | CCC(C1=C(O)CC(CCc2ccccc2)(CCc2ccccc2)OC1=O)c1cccc(NS(=O)(=O)c2cn(C)cn2)c1 (stereo not drawn) [Example 330, N-[3-{1-(4-Hydroxy-5,6-dihydro-2-oxo-6,6-bis(2-phenylethyl)-2H-pyran-3-yl)propyl}phenyl]-1-methyl-1H-imidazole-4-sulfonamide] | 0.524 | – | 93.74 | 94.32 | 93.66 | 85.63 | 87.9 | 69.82 | – | – | –
7 | CC(C)(C)C(C1=C(O)C2CCCCCCC2OC1=O)c1cccc(NS(=O)(=O)c2ccc(C#N)cn2)c1 (stereo not drawn) [Example 373, 5-Cyano-N-[3-[2,2-dimethyl-1-(4a,5,6,7,8,9,10,10a-octahydro-4-hydroxy-2-oxo-2H-cycloocta[b]pyran-3-yl)propyl]phenyl]-2-pyridinesulfonamide] | 0.2 | – | 90.71 | 90.35 | 103.83 | 88.72 | 85.75 | 89.53 | – | – | –

— patent US6169181A, “Compounds useful to treat retroviral infections” (Pharmacia & Upjohn Company, priority 1998, dated 2001)
